From US11331327B2, “Antibacterial use of halogenated salicylanilides” (UNION therapeutics A/S, priority 2014, dated 2022)
Read-outs that look alike come from different tables or passages of the source.

Test system: S. aureus clinical isolates and S. aureus ATCC 29213
Assay: MIC assay according to CLSI criteria, Example 2, S. aureus strains
Format: cell-based, Staphylococcus aureus
Settings: for MIC: Staphylococcus aureus, read-out: MIC
Description: Strains were conserved in Luria Bertani (LB) Broth (S. aureus) or Brain Heart Infusion (BHI) (S. pyogenes) supplemented with glycerol 15% (v/v) at −80° C., and reactivated by isolation on LB (S. aureus) or BHI (S. pyogenes) agar plates. Strains were cultivated in Mueller Hinton (MH) Broth-cation adjusted (S. aureus) or BHI (S. pyogenes). All strains were cultivated aerobically (microaerobically for S. pyogenes strains) at 37° C.
Bacterial cultures were stopped in their exponential growth phase and plates were inoculated with the approximate concentration of 5×10^5 cells per well. Plates were incubated at 37° C. for 18 hours (S. aureus) or 24 hours (S. pyogenes).

[1] = ATCC29213, Staphylococcus aureus strains
[2] = S. aureus strains with MIC 0.5 μg/ml

O=C(Nc1ccc([N+](=O)[O-])cc1Cl)c1cc(Cl)ccc1O [Niclosamide, 5-chloro-N-(2-chloro-4-nitrophenyl)-2-hydroxybenz-amide]
0.125 to 0.5 µg/mL: MIC Range values (Staphylococcus aureus strains)
(55/205): MIC distribution (ratio of strains) [2]
≤ 0.5 µg/mL: MIC (ATCC29213, all targeted S. aureus strains, including resistant strains)
0.25 µg/mL: MIC50 [1] | MIC (ATCC29213, strain 9-2642158) | MIC (ATCC29213, strain 9-2955245) | MIC (ATCC29213, strain 000041C) | MIC (ATCC29213, strain 000274T) | MIC (ATCC29213, strain 114660U) | MIC (ATCC29213, strain 115263C) | MIC (ATCC29213, strain 115295C) | MIC (ATCC29213, strain 115370U) | MIC (ATCC29213, strain 115427C) | MIC (ATCC29213, strain 115561C) | MIC (ATCC29213, strain 115584D) | MIC (ATCC29213, strain 115628T) | MIC (ATCC29213, strain 115690C) | MIC (ATCC29213, strain 115810E) | MIC (ATCC29213, strain 116122T) | MIC (ATCC29213, strain E5-1029252) | MIC (ATCC29213, strain E5-1029558) | MIC (ATCC29213, strain E5-1030440) | MIC (ATCC29213, strain E5-1030469) | MIC (ATCC29213, strain E5-1033088) | MIC (ATCC29213, strain E5-1035284) | MIC (ATCC29213, strain E5-1037971) | MIC (ATCC29213, strain E5-1038286) | MIC (ATCC29213, strain E5-1039697) | MIC (ATCC29213, strain E5-1041980) | MIC (ATCC29213, strain E5-1043668) | MIC (ATCC29213, strain E5-1045179) | MIC (ATCC29213, strain E5-1046019) | MIC (ATCC29213, strain E5-1046039) | MIC (ATCC29213, strain E5-1046070) | MIC (ATCC29213, strain E5-1046074) | MIC (ATCC29213, strain E5-1046298) | MIC (ATCC29213, strain E5-1046723) | MIC (ATCC29213, strain E5-1047585) | MIC (ATCC29213, strain E5-1048204) | MIC (ATCC29213, strain E5-1048428) | MIC (ATCC29213, strain E5-1048654) | MIC (ATCC29213, strain EEFIC 01) | MIC (ATCC29213, strain EEFIC 02) | MIC (ATCC29213, strain K000772) | MIC (ATCC29213, strain K000796) | MIC (ATCC29213, strain K000863) | MIC (ATCC29213, strain K000864) | MIC (ATCC29213, strain K000866) | MIC (ATCC29213, strain K115498) | MIC (ATCC29213, strain K115688) | MIC (ATCC29213, strain K115689) | MIC (ATCC29213, strain R000024) | MIC (ATCC29213, strain U115579) | MIC (ATCC 29213 / MRSA, strain MRSA 01) | MIC (ATCC 29213 / MRSA, strain MRSA 02) | MIC (ATCC 29213 / MRSA, strain MRSA 03) | MIC (ATCC 29213 / MRSA, strain MRSA 04) | MIC (ATCC 29213 / MRSA, strain MRSA 05) | MIC (ATCC 29213 / MRSA, strain MRSA 06) | MIC (ATCC 29213 / MRSA, strain MRSA 08) | MIC (ATCC 29213 / MRSA, strain MRSA 10) | MIC (ATCC 29213 / MRSA, strain MRSA 11)
0.125 µg/mL: MIC (ATCC29213, strain E5-1030482) | MIC (ATCC29213, strain E5-1048670) | MIC (ATCC 29213 / MRSA, strain MRSA 07) | MIC (ATCC 29213 / MRSA, strain MRSA 09)
0.5 µg/mL: MIC90 [1] | MIC (ATCC29213, strain 9-1862936) | MIC (ATCC29213, strain 9-2625962) | MIC (ATCC29213, strain 9-26422166) | MIC (ATCC29213, strain 000040C) | MIC (ATCC29213, strain 115015T) | MIC (ATCC29213, strain 115242C) | MIC (ATCC29213, strain 115268C) | MIC (ATCC29213, strain 115273C) | MIC (ATCC29213, strain 115303C) | MIC (ATCC29213, strain 115445C) | MIC (ATCC29213, strain 115691T) | MIC (ATCC29213, strain 115740E) | MIC (ATCC29213, strain 115903T) | MIC (ATCC29213, strain ATCC 29213) | MIC (ATCC29213, strain E5-1030472) | MIC (ATCC29213, strain E5-1033076 (first line, r202)) | MIC (ATCC29213, strain E5-1033076 (second line, r203)) | MIC (ATCC29213, strain E5-1033091) | MIC (ATCC29213, strain E5-1035277) | MIC (ATCC29213, strain E5-1035775) | MIC (ATCC29213, strain E5-1035779) | MIC (ATCC29213, strain E5-1037958) | MIC (ATCC29213, strain E5-1038279) | MIC (ATCC29213, strain E5-1038294) | MIC (ATCC29213, strain E5-1039684) | MIC (ATCC29213, strain E5-1041977) | MIC (ATCC29213, strain E5-1041979) | MIC (ATCC29213, strain E5-1041987) | MIC (ATCC29213, strain E5-1043184) | MIC (ATCC29213, strain E5-1046020) | MIC (ATCC29213, strain E5-1046085) | MIC (ATCC29213, strain E5-1046096) | MIC (ATCC29213, strain E5-1046296) | MIC (ATCC29213, strain E5-1046297) | MIC (ATCC29213, strain E5-1047606) | MIC (ATCC29213, strain E5-1047924) | MIC (ATCC29213, strain R000019) | MIC (ATCC29213, strain R000020)
27%: MIC distribution (percentage of strains) [2]
